Experimental data from the PolyMetriX glass transition set.
± gives the standard deviation of the reports.

Row | SMILES | glass transition temperature
1 | *CC(OCCCC)C1(C)C(=O)OC(=O)C1(*)C (repeat unit) | 197.00 °C
2 | *CCCCCC(=O)Oc1ccc(OC(=O)CCCCCn2c(=O)c3cc4c(=O)n(*)c(=O)c4cc3c2=O)c(C)c1 (repeat unit) | 78.00 °C
3 | *C(=O)Nc1ccc2c(c1)Cc1cc(NC(=O)c3ccc4c(c3)C(=O)N(c3ccc(NC(=O)Nc5ccc(N6C(=O)c7ccc(*)cc7C6=O)cc5)cc3)C4=O)ccc1-2 (repeat unit) | 224.00 °C
4 | *CCN(CCOC(=O)/C=C/c1ccc(/C=C/C(=O)O*)cc1)c1ccc(/N=N/c2ccc([N+](=O)[O-])cc2)cc1 (repeat unit) | 120.00 °C
5 | *OC(COC(=O)c1ccccc1-c1ccccc1C(*)=O)COc1ccc(/N=N/c2ccc(C#N)cc2)cc1 (repeat unit) | 120.00 °C
6 | *c1ccc(Oc2ccc(C(=O)c3cccc(C(=O)c4ccc(Oc5ccc(-n6c(=O)c7cc8c(=O)n(*)c(=O)c8cc7c6=O)cc5)cc4)n3)cc2)cc1 (repeat unit) | 324.60 °C
7 | *Oc1ccc(C(c2ccc(OC(*)=O)cc2)C2CCCCC2)cc1 (repeat unit) | 190.00 °C
8 | *c1cccc(N2C(=O)c3cccc(Oc4cccc(Oc5cccc6c5C(=O)N(*)C6=O)c4)c3C2=O)c1 (repeat unit) | 241.00 °C
9 | *Oc1cccc(Oc2ccc(NC(=O)c3ccc(-c4ccc(C(=O)Nc5ccc(*)cc5)c(C)c4)cc3C)cc2)c1 (repeat unit) | 213.00 °C
10 | *c1ccc(Oc2ccccc2Oc2ccc(N3C(=O)c4ccc(-c5ccc6c(c5)C(=O)N(*)C6=O)cc4C3=O)cc2C(F)(F)F)c(C(F)(F)F)c1 (repeat unit) | 249.00 °C
11 | *c1ccc(-c2cnc3ccc(-c4ccc5nc(*)cnc5c4)cc3n2)cc1 (repeat unit) | 376.00 °C
12 | *CC(*)c1ccccc1COCCC (repeat unit) | 97.00 °C
13 | *N=P(N=P(N=S(*)(=O)NCCCCCC)(NCCCCCC)NCCCCCC)(NCCCCCC)NCCCCCC (repeat unit) | -18.00 °C
14 | *CCOC(=O)CCCCCCC(=O)OCCOC(=O)c1ccc(C(=O)O*)cc1 (repeat unit) | -1.00 °C
15 | *[O][Sn]([CH2]CCC)([CH2]CCC)[O]C(=O)c1ccc(C(*)=O)cc1 (repeat unit) | 315.00 °C
16 | *C[Si](*)(CCC)CCC (repeat unit) | -41.00 °C
17 | *Oc1ccc(C(c2ccc(OC(*)=O)cc2)C2C3CCC(C3)C2C)cc1 (repeat unit) | 232.00 °C
18 | *c1ccc(C(*)C)cc1 (repeat unit) | 93.00 °C
19 | *Nc1ccc(C(=O)c2ccc(NC(=O)c3cccc(C(*)=O)c3)cc2)cc1 (repeat unit) | 253.20 °C
20 | *CC(C)(C)COC(=O)O* (repeat unit) | 25.00 °C
21 | *c1ccc(/C=C/c2cc(OCCCCCCCC)c(/C=C/c3ccc(N(*)c4ccccc4)cc3)cc2OCCCCCCCC)cc1 (repeat unit) | 74.00 °C
22 | *O[Si](*)(C)CCCC(=O)OCC (repeat unit) | -82.00 °C
23 | *O[Si](*)(C)CCCCCCCCCCCn1c2ccccc2c2ccccc21 (repeat unit) | -45.00 °C
24 | *CC(CO*)(CSCC)CSCC (repeat unit) | -32.00 °C
25 | *c1cccc(P(=O)(c2cccc(-n3c(=O)c4cc5c(=O)n(*)c(=O)c5c(-c5ccccc5)c4c3=O)c2)c2cc(C(F)(F)F)cc(C(F)(F)F)c2)c1 (repeat unit) | 300.00 °C
26 | *CCC(C(=O)OC)C(*)C(=O)OC (repeat unit) | 31.20 °C

The next lines start with the values.

Row | glass transition temperature | SMILES
27 | 139.00 °C | *CCCC(=O)NNC(=O)c1ccc(C(=O)NNC(=O)CCCOc2ccc(O*)c(C)c2)cc1 (repeat unit)
28 | 59.00 °C | */C=C/C1CC(*)C2C(=O)N(CCCCCCC)C(=O)C12 (repeat unit)
29 | 290.00 °C | *CCCc1ccc(-c2c(-c3ccccc3)cc(-c3ccc(-c4cc(-c5ccccc5)c(-c5ccc(*)cc5)c(-c5ccccc5)c4-c4ccccc4)cc3)c(-c3ccccc3)c2-c2ccccc2)cc1 (repeat unit)
30 | 107.00 °C | *CC(O)COc1ccc(C(C)(C)c2ccc(OCC(O)COc3cccc(NC(=O)CCCCCC(=O)Nc4cccc(O*)c4)c3)cc2)cc1 (repeat unit)
31 | 150.00 °C | *CC(O)CN(*)c1cc(C)c(/N=N/c2ccc(C#N)cc2)c(C)c1 (repeat unit)
32 | 336.00 °C | *c1ccc2oc(-c3ccc(C(c4ccc(-c5nc6cc(C(*)(C(F)(F)F)C(F)(F)F)ccc6o5)cc4)(C(F)(F)F)C(F)(F)F)cc3)nc2c1 (repeat unit)
33 | 168.00 °C | *CCCCCCOC(=O)NCCCCCCNC(=O)O* (repeat unit)
34 | 33.50 °C | *CCCCOC(=O)NCCCCCCNC(=O)O* (repeat unit)
35 | 205.00 °C | *Oc1ccc(C(C)(C)c2ccc(OC(=O)c3ccc(Cc4ccc(C(*)=O)cc4)cc3)cc2)cc1 (repeat unit)
36 | 122.00 °C | *C1=C(c2ccc(-c3ccc4c(c3)C(CCCCCC)(CCCCCC)c3cc(-c5ccc(*)cc5)ccc3-4)cc2)C(=O)N(CCCCCCCC)C1=O (repeat unit)
37 | 104.00 °C | *Oc1ccc(Oc2ccc(OC(=O)c3cccc(Oc4ccc(Oc5cccc(C(*)=O)c5)cc4)c3)cc2)cc1 (repeat unit)
38 | 218.00 °C | *c1ccc(C(c2ccc(N3C(=O)c4ccc(Oc5ccc6cc(Oc7ccc8c(c7)C(=O)N(*)C8=O)ccc6c5)cc4C3=O)cc2)(C(F)(F)F)C(F)(F)F)cc1 (repeat unit)
39 | 117.00 °C | *Oc1ccc(C2(c3ccc(OC(=O)CCCCCCCCCCC(*)=O)cc3)c3ccccc3-c3ccccc32)cc1 (repeat unit)
40 | 237.00 °C | *C(=O)Nc1ccc(C)cc1N1C(=O)CC(N2C(=O)c3ccc(*)cc3C2=O)C1=O (repeat unit)
41 | 85.00 °C | *CCCCCCCCOc1c(OC)cc(/C=C/c2cc(C(C)C)c(/C=C/c3cc(OC)c(O*)c(OC)c3)cc2C(C)C)cc1OC (repeat unit)
42 | 132.00 °C | */C=C/c1ccc(N(c2ccc(/C=C/c3ccc4c5ccc(*)cc5n(CC(CC)CCCC)c4c3)cc2)c2ccc(OCC(CC)CCCC)cc2)cc1 (repeat unit)
43 | 307.00 °C | *C(=O)Nc1ccc(NC(=O)c2ccc3c(c2)C(=O)N(c2ccc(Oc4cccc5c(N6C(=O)c7ccc(*)cc7C6=O)cccc45)cc2)C3=O)cc1 (repeat unit)
44 | 51.00 °C | *CCCCCCOC(=O)c1ccc(-c2ccc(C(=O)O*)cc2)cc1 (repeat unit)
45 | 60.00 °C | *O[Si](*)(C)C1CC2CC1CC2OC(=O)OC(C)(C)C (repeat unit)
46 | 31.00 °C | *c1ccc(-c2cc(CCCCCCCC)c(-c3ccc(-c4ccc(-c5sc(-c6ccc([Si](*)(C)C)s6)cc5CCCCCCCC)s4)s3)s2)s1 (repeat unit)

Row | glass transition temperature | SMILES
47 | 78.80 °C | *c1ccc2c(c1)C(CCCCCC)(CCCCCC)c1cc(-c3cc(CCCCCC)c(*)cc3CCCCCC)ccc1-2 (repeat unit)
48 | 190.00 °C | *Nc1cc(NC(=O)Nc2ccc(NC(*)=O)cc2)cc(C(=O)Nc2cccc3c2C(=O)c2ccccc2C3=O)c1 (repeat unit)
49 | 50.00 °C | *CC(*)c1ccc(C(O)CCN2CCOCC2)cc1 (repeat unit)
50 | 210.50 °C | *Oc1ccc(C(C)(C)c2ccc(Oc3ccc(C(=O)c4cccc5cccc(C(=O)c6ccc(*)cc6)c45)cc3)cc2)cc1 (repeat unit)
51 | 325.00 ± 11 °C | *C(=O)c1ccc2c(c1)C(=O)N(c1ccc(N3C(=O)c4ccc(*)cc4C3=O)cc1)C2=O (repeat unit)
52 | 66.00 °C | *CCCCOC(=O)c1ccc2cc(C(=O)O*)ccc2c1 (repeat unit)
53 | 318.00 °C | *C(=O)Nc1ccc(C(c2ccc(NC(=O)c3ccc4c(c3)C(=O)N(c3c(C)cc(-c5cc(C)c(N6C(=O)c7ccc(*)cc7C6=O)c(C)c5)cc3C)C4=O)cc2)(C(F)(F)F)C(F)(F)F)cc1 (repeat unit)
54 | 40.00 °C | *CC(*)(C)C(=O)OCCCCCC(=O)Oc1ccc(OC(=O)c2ccc(OCCCC)cc2)cc1 (repeat unit)
55 | 105.00 °C | *CCc1ccc(CCNC(=O)CCCCCCCCC(=O)N*)cc1 (repeat unit)
56 | 300.00 °C | *C(=O)c1ccc2c(c1)C(=O)N(c1cccc(C(=O)c3c(C)cc(C)c(N4C(=O)c5ccc(*)cc5C4=O)c3C)c1)C2=O (repeat unit)
57 | 236.00 °C | *C(=O)Nc1ccc(Oc2cccc(NC(=O)c3ccc4c(c3)C(=O)N(c3ccc(Oc5ccc(N6C(=O)c7ccc(*)cc7C6=O)cc5)cc3)C4=O)c2)cc1 (repeat unit)
58 | 130.00 °C | *c1ccc(C#Cc2cc(OCCCCCCCC)c(C#Cc3ccc(-c4nnc(*)o4)cc3)cc2OCCCCCCCC)cc1 (repeat unit)
59 | 50.50 °C | *CCCCCCCCCCCCOC(=O)c1ccc(-c2ccc(C(=O)O*)cc2)cc1 (repeat unit)
60 | 87.00 °C | *CCCCCCNC(=O)CCc1ccc(CC(=O)N*)cc1 (repeat unit)
61 | 223.00 °C | *c1ccc(Oc2ccc(C(c3ccc(Oc4ccc(N5C(=O)c6ccc(-c7ccc8c(c7)C(=O)N(*)C8=O)cc6C5=O)cc4C(F)(F)F)cc3)(C(F)(F)F)C(F)(F)F)cc2)c(C(F)(F)F)c1 (repeat unit)
62 | 227.50 °C | *c1ccc(Oc2ccc(C(C)(C)c3ccc(Oc4ccc(N5C(=O)c6ccc(Oc7ccc8c(c7)C(=O)N(*)C8=O)cc6C5=O)cc4)cc3)cc2)cc1 (repeat unit)
63 | 36.00 °C | *CC(*)(C)C(=O)OCCCCCCCCCCn1c2ccccc2c2cc(/N=N/c3ccc([N+](=O)[O-])cc3)ccc21 (repeat unit)
64 | 220.00 °C | *Oc1ccc(NC(=O)c2ccc([Si](C)(C)c3ccc(C(*)=O)cc3)cc2)cc1 (repeat unit)
65 | 72.34 °C | *c1ccc(NC(=O)CCCCCCCCC(=O)Nc2ccc(S(*)(=O)=O)cc2)cc1 (repeat unit)
66 | 36.00 °C | *Oc1ccc(CC(NC(=O)CCc2ccc(OC(=O)COCC(*)=O)cc2)C(=O)OCCCCCCCCCCCC)cc1 (repeat unit)
